Test results reported in patent US20250161236A1, “THYMOQUINONE AND BLACK SEED COMPOSITIONS FOR TREATING NEUROENDOCRINE CANCER IN COMBINATION WITH IMMUNOTHERAPY” (Novatek Pharmaceuticals, Inc., priority 2023, published 2025).

How the values were obtained:
[1] = test system: breast cancer cells; details: cited from earlier work
[2] = test system: QGP-1 cells; assay: Cell viability (MTT) assay, QGP-1 cells; type: cell-based, human; details: 72 hrs
Experimental: (§1) TQ activity was evaluated in two human pancreatic neuroendocrine tumor (pNEN) cell lines: (1) BON-1 cells, established from a lymph node metastasis of a pNET (Evers et al. 1991, Gastroenterology. 101, 303-311); and (2) QGP-1 cells, established from primary somatostatin producing pNET (Kaku et al. 1980, Gan. 71, 596-601). […] See Vandamme et al. 2015, J. Mol. Endocrinol. 54, 137-147.
(§2) About 5000 Bon-1 or 5000 QGP-1 cells were grown in 96-well plates overnight. On the following day, the cells were exposed to the indicated concentrations of TQ for 72 hrs. At the end of the treatment period, a standard MTT assay was performed to measure cell proliferation and conversely, in the presence of TQ, the reduction in cell viability The values represent 6 replicates per dose from three independent experiments.

[3] = test system: BON-1 cells; assay: Cell viability (MTT) assay, BON-1 cells; type: cell-based, human; details: 72 hrs
Experimental: as §1, §2

[4] = test system: BON-1 cells; assay: Annexin V FITC apoptosis analysis; type: cell-based, human; details: 3 uM or 6 uM TQ, 72 h
Experimental: (§3) About 30,000 BON-1 cells were grown in triplicate in 6 well plates overnight. The next day cells were exposed to 3 uM or 6 uM TQ (or control) for 72 h followed by Annexin V FITC apoptosis analysis. See, e.g., Demchenko 2012, Exp. Oncol. 34, 263-268. In addition, BON-1 cells grown and treated under similar experimental conditions were evaluated by Western blotting for the presence of cleaved PARP-a marker of apoptosis. See, e.g., Chaitanya et al. 2010, Cell Comm. Signal. 8, 31.

[5] = test system: PARP cleavage in BON-1 cells; assay: Western blotting for cleaved PARP; type: cell-based, human; details: 3 uM or 6 uM TQ, 72 h
Experimental: as §3

[6] = test system: Bon-1 (or QGP-1) cells; assay: Colony formation assay; type: cell-based, human; details: 2.5 uM or 12.5 uM TQ 72 hrs, then 12 days drug free; p<0.01
Experimental: About 500 Bon-1 (or QGP-1) cells were seeded in 6-well plates in triplicate and allowed to attach overnight. On the following day, cells were treated with 2.5 uM or 12.5 uM TQ (or control) for 72 hrs. After treatment, cells were replenished with drug free media for 12 days and subjected to 0.5% crystal violet staining. Bar diagrams (FIG. 1B) show the number of colonies at the indicated TQ concentration.

[7] = test system: pancreatic ductal adenocarcinoma tumor models; assay: TQ inhibitory action in pancreatic ductal adenocarcinoma tumor models; type: cell-based
[8] = test system: patients with refractory poorly differentiated NEC; details: cited from earlier work
[9] = test system: patients with refractory high grade (G3) NENs; details: cited from earlier work
[10] = test system: refractory NEC patients; details: high-grade NEC group of 21 patients; cited from earlier work

Q: Which “inhibitory effects against breast cancer cells” value [1] does the source give for `CCCCCCCCCOc1c(CCCC(=O)O)cc(-c2ccc(C(=O)O)cc2)cc1CCCC(=O)O` [CNBDA] here?
A: The value was “significant inhibitory effects”.

Q: What does the source list for `CC1=CC(=O)C(C(C)C)=CC1=O` [TQ, Thymoquinone]?
A: IC50 (cell viability) [2]: low uM range; IC50 (cell viability) [3]: low uM range; apoptosis (Annexin V-FITC staining, flow cytometry) [4]: induced significant apoptosis; PARP cleavage product (western blot) [5]: dose dependent accumulation of the PARP cleavage product; long term growth in colony formation assay [6]: suppressed long term growth; IC50 [7]: high uM range

Q: For nivolumab: anti-PD-1 antibody, which ORR ([8]; at 8 weeks) is on record?
A: Its ORR is 7.2%.

Q: What about the OS [8] of the same molecule?
A: Its OS is 7.2 months.

Q: What about the PFS [8] of the same molecule?
A: Its PFS is 1.8 months.

Q: With pembrolizumab: anti-PD1 antibody as the molecule, how does the “objective response rate (ORR)” value [9] read?
A: The value was 5%.

B1: spartalizumab: single agent ICPI in a phase II study in refractory NEC (antibody, chains of the INN, looked up, V domains shown)
VH: EVQLVQSGAEVKKPGESLRISCKGSGYTFTTYWMHWVRQATGQGLEWMGNIYPGTGGSNFDEKFKNRVTITADKSTSTAYMELSSLRSEDTAVYYCTRWTTGTGAYWGQGTTVTVSS
VL: EIVLTQSPATLSLSPGERATLSCKSSQSLLDSGNQKNFLTWYQQKPGQAPRLLIYWASTRESGVPSRFSGSGSGTDFTFTISSLEAEDAATYYCQNDYSYPYTFGQGTKVEIK
Q: What does the source list for B1?
A: ORR [10]: 4.8%; OS [10]: 6.8 months; PFS [10]: 1.8 months
